The source of these data is patent US7795290B2 (Genentech, Inc., priority 2004, dated 2010).

Assay in all cases: HTS ATP-utilizing enzyme assay, off-chip mobility-shift (Caliper HTS 250)
Common to all, as to format: biochemical
Details in all cases: kinase named = inhibitory activity/selectivity; test compound 10 μM; active = greater than three-sigma from mean

One assay concerns the target CHEK2 (Homo sapiens, UniProt O96017). The source says: (§1) The following procedures describe the reagent and plate preparation for a HTS of an ATP-utilizing enzyme, such as a protein kinase, run in an off-chip mobility-shift assay format. The following provides an HTS protocol for running a protein kinase HTS screen on a Caliper HTS 250 microfluidics system. The following parameters are dependent on the protein kinase used and can be determined by one skilled in the art as part of a typical assay development process. For example, the peptide substrate used can be identified from the current literature, by screening a peptide library of potential protein kinase substrates, or by other applicable means accepted in the field.
(§2) Assays to determine the kinase inhibitory activity of chemical entities of the present disclosure were performed using a Caliper HTS 250 microfluidics device, Greiner U-bottom assay plates, a Multidrop for transfer of reagents, and Biomek FX (AMNCBM03) software. Initially, 2.4 μL of a 1 mM solution of a test compound in 100% DMSO was added to a well of the Greiner U-bottom plate. A single Greiner U-bottom plate having 24×16 wells could include multiple test compounds. Next, 40 μL of 1.06× Assay Buffer was added to each well of the assay plate. Using the Biomek FX, 10 μL of 0.5 M EDTA was added by the span-8 to wells, indicated as 100% Control and 2.4 μL of 100% DMSO was added by the span-8 to wells, indicated as 0% Control. Using the Multidrop, 10 μL of 2.5× Enzyme Buffer, followed by 10 μL of 2.5× Substrate Buffer was added to each well of the assay plate. The total reaction volume in each well was 25 μL, and the concentration of the test compound was 10 μM. The assay plate was incubated for 2.5 hrs at 20° C. to 22° C. After the incubation period, using the Multidrop, 45 μL of 1.55× Termination Buffer was added to each well of the assay plate to stop the reaction. The inhibition of the ATP-utilizing enzyme, such as a particular protein kinase, was determined by measuring the ratio of the peptide substrate to phosphorylated product for each well of the assay plate using the Caliper HTS 250 system.
(§3) The use of three-sigma statistical limits represents a conservative method for declaring potential hits among targets. The three-sigma activity, as well as the mean population activity, can be different for each target enzyme. This method has an expected false positive rate, from an in-control measurement process, of […].
(§4) Each chemical entity listed in Table 2 was tested for protein kinase inhibitory activity according to the biological assays and definitions of protein kinase inhibitory activity as described herein. For each exemplary compound listed in Table 2, the inhibitory activity for at least one protein kinase according to the biological assays and definitions of protein kinase inhibitory activity as described herein is indicated.

The target of another assay is T1, ZAP70 (Homo sapiens, UniProt P43403).
T1 sequence (P43403 1-619): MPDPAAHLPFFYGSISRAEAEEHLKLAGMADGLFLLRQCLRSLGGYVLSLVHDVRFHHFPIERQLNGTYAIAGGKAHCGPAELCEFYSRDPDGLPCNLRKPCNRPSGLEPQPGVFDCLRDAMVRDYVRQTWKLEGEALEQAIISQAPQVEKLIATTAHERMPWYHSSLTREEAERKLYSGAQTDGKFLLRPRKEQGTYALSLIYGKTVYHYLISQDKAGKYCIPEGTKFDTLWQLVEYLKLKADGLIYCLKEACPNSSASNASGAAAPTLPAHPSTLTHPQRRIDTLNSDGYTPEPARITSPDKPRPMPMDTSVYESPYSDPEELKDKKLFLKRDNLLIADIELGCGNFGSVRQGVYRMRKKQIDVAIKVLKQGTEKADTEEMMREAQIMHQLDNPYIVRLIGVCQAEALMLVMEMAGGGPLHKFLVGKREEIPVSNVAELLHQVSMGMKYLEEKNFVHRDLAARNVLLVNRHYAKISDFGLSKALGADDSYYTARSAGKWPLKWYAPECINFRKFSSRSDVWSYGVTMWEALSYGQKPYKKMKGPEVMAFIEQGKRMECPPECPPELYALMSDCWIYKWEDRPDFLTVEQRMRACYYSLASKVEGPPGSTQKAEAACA
Text: as §1, §2, §3, §4

In a further assay the target is T2, AKT1 (Homo sapiens, UniProt P31749).
T2 construct: purchased Upstate 14-276
Put shortly: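 AKT1 activity was measured by off-chip mobility shift (Caliper HTS 250) as the ratio of peptide substrate to phosphorylated product. Test compound was at 10 μM, with 2.5 h incubation at 20–22° C. EDTA wells served as 100% control and DMSO wells as 0%. Hits were called at three-sigma limits.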

The next assay concerns the target T3, DYRK2 (Homo sapiens, UniProt Q92630).
T3 sequence (Q92630 1-601): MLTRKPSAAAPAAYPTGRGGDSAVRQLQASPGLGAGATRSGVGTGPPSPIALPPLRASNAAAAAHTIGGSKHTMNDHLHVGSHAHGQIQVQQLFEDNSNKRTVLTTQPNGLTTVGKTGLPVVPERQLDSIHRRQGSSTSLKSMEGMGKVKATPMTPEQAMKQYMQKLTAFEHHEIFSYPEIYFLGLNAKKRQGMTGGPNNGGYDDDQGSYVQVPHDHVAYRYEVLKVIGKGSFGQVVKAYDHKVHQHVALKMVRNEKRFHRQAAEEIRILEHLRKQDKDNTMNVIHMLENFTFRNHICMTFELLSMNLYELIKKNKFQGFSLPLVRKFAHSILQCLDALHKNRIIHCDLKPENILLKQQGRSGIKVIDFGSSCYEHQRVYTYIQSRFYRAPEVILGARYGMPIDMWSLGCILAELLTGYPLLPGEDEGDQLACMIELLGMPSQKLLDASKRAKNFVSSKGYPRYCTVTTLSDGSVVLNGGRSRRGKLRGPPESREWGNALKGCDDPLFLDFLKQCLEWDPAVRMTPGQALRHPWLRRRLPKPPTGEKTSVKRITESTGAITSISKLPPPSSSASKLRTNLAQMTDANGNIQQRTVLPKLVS
Text: as §1, §2, §3, §4

T2 sequence (P31749 whole entry): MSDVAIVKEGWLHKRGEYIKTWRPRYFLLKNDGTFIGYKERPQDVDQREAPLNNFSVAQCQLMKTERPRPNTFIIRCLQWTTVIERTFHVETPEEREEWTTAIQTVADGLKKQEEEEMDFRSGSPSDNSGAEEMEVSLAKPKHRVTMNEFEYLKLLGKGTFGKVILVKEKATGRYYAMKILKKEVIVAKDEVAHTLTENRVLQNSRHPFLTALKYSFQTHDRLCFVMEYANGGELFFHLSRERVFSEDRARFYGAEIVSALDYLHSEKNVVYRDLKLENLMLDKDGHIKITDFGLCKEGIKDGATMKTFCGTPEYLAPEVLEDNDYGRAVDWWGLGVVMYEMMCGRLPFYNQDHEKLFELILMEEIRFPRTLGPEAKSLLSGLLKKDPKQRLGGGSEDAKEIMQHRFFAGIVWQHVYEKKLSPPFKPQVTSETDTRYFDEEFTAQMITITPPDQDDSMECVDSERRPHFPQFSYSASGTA
Sequence of CHEK2 (O96017 whole entry): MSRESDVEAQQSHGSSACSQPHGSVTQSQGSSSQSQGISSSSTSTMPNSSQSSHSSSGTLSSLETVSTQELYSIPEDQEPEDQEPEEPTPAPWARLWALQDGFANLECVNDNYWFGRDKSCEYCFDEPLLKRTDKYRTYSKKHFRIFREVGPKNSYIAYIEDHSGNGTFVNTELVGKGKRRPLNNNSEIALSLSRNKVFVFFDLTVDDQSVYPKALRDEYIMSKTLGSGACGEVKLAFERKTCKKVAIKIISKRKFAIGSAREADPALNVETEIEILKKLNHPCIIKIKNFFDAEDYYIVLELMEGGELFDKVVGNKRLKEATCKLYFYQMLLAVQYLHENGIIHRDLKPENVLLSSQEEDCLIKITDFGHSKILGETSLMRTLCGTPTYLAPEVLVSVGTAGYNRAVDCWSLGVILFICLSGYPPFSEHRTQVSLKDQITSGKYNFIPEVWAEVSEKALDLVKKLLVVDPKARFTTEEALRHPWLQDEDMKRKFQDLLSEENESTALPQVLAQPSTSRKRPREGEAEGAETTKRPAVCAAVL

Regarding `CCN(CC)CCCN(C(=O)c1ccccc1Cl)c1nc(-c2cc(OC)ccc2OC)cs1` [2-chloro-N-(3-(diethylamino)propyl)-N-(4-(2,5-dimethoxyphenyl)thiazol-2-yl)benzamide], the Activity result at CHEK2 is “CHEK2”. With `COc1ccc(-c2csc(N(CCCN3CCOCC3)C(=O)c3ccccc3C#N)n2)cc1` [2-cyano-N-(4-(4-methoxyphenyl)thiazol-2-yl)-N-(3-morpholinopropyl)benzamide], the Activity entry on ZAP70 is reported as “ZAP70”.

Regarding `COc1ccc(-c2csc(N(CCCN3CCOCC3)C(=O)c3sccc3Br)n2)cc1` [3-bromo-N-(4-(4-methoxyphenyl)thiazol-2-yl)-N-(3-morpholinopropyl)thiophene-2-carboxamide], the Activity result was “AKT1” on AKT1 and “ZAP70” at ZAP70.

In the case of `COc1ccc(-c2csc(N(CCCN3CCOCC3)C(=O)c3nsc(Cl)c3Cl)n2)cc1` [4,5-dichloro-N-(4-(4-methoxyphenyl)thiazol-2-yl)-N-(3-morpholinopropyl)isothiazole-3-carboxamide], at ZAP70, the Activity result is “ZAP70”.

As for `COc1ccc(-c2csc(N(CCCN3CCOCC3)C(=O)c3ccc(C(C)=O)s3)n2)cc1` [5-acetyl-N-(4-(4-methoxyphenyl)thiazol-2-yl)-N-(3-morpholinopropyl)thiophene-2-carboxamide], the Activity result on ZAP70 is “ZAP70”. In the case of `COc1ccc(-c2csc(N(CCCN3CCOCC3)C(=O)c3ccc(Br)s3)n2)cc1` [5-bromo-N-(4-(4-methoxyphenyl)thiazol-2-yl)-N-(3-morpholinopropyl)thiophene-2-carboxamide], the Activity result was “AKT1” at AKT1 and “ZAP70” at ZAP70. The like results for `COc1ccc(-c2csc(N(CCCN3CCOCC3)C(=O)c3cccc(Cl)n3)n2)cc1` [6-chloro-N-(4-(4-methoxyphenyl)thiazol-2-yl)-N-(3-morpholinopropyl)picolinamide] were, in that order, “AKT1” and “ZAP70”. With `CN1CCN(CCCN(C(=O)c2cccs2)c2nc(-c3ccccc3)cs2)CC1` [N-(3-(4-methylpiperazin-1-yl)propyl)-N-(4-phenylthiazol-2-yl)thiophene-2-carboxamide], the figures for the Activity result on AKT1 and on CHEK2 were “AKT1” and “CHEK2”, respectively.

Consider `CCN(CC)CCCN(C(=O)c1ccccc1F)c1nc(-c2cc(OC)ccc2OC)cs1` [N-(3-(diethylamino)propyl)-N-(4-(2,5-dimethoxyphenyl)thiazol-2-yl)-2-fluorobenzamide], for which the Activity result is recorded as “AKT1” at AKT1 and “CHEK2” on CHEK2. `CCN(CC)CCCN(C(=O)COc1ccc(C)cc1)c1nc(-c2ccc(OC)cc2)cs1` [N-(3-(diethylamino)propyl)-N-(4-(4-methoxyphenyl)thiazol-2-yl)-2-(p-tolyloxy)acetamide]: the Activity result on DYRK2 is on record as “DYRK2”. With `CN(C)CCCN(C(=O)c1ccccc1F)c1nc(-c2ccccc2)cs1` [N-(3-(dimethylamino)propyl)-2-fluoro-N-(4-phenylthiazol-2-yl)benzamide], the Activity entry on AKT1 is given as “AKT1”; on CHEK2, “CHEK2”. The like results for `COc1ccc(OC)c(-c2csc(N(CCCN3CCN(C)CC3)C(=O)c3ccco3)n2)c1` [N-(4-(2,5-dimethoxyphenyl)thiazol-2-yl)-N-(3-(4-methylpiperazin-1-yl)propyl)furan-2-carboxamide] were, in that order, “AKT1” and “CHEK2”. The like results for `COc1ccc(OC)c(-c2csc(N(CCCN(C)C)C(=O)c3ccccc3F)n2)c1` [N-(4-(2,5-dimethoxyphenyl)thiazol-2-yl)-N-(3-(dimethylamino)propyl)-2-fluorobenzamide] were, in that order, “AKT1” and “CHEK2”. The like results for `COc1ccc(OC)c(-c2csc(N(CCCN(C)C)C(=O)c3cccs3)n2)c1` [N-(4-(2,5-dimethoxyphenyl)thiazol-2-yl)-N-(3-(dimethylamino)propyl)thiophene-2-carboxamide] were, in that order, “AKT1” and “CHEK2”.

`COc1ccc(-c2csc(N(CCCN3CCOCC3)C(=O)CC(C)(C)C)n2)cc1` [N-(4-(4-methoxyphenyl)thiazol-2-yl)-3,3-dimethyl-N-(3-morpholinopropyl)butanamide]: on DYRK2, the Activity entry is reported as “DYRK2”. Consider `COc1ccc(-c2csc(N(CCCN3CCOCC3)C(=O)c3conc3C)n2)cc1` [N-(4-(4-methoxyphenyl)thiazol-2-yl)-3-methyl-N-(3-morpholinopropyl)isoxazole-4-carboxamide], for which the Activity entry on DYRK2 is “DYRK2”; on ZAP70 it was “ZAP70”. With `COc1ccc(-c2csc(N(CCCN3CCN(C)CC3)C(=O)c3ccccc3)n2)cc1` [N-(4-(4-methoxyphenyl)thiazol-2-yl)-N-(3-(4-methylpiperazin-1-yl)propyl)benzamide], the Activity entry at AKT1 is listed as “AKT1”; at CHEK2, “CHEK2”. Consider `CCC(=O)N(CCCOC)c1nc(-c2ccc(OC)cc2)cs1` [N-(4-(4-methoxyphenyl)thiazol-2-yl)-N-(3-methoxypropyl)propionamide], for which the Activity entry on DYRK2 was “DYRK2”. Same read-out and setting: the value for `COc1ccc(-c2csc(N(CCCN3CCOCC3)C(C)=O)n2)cc1` [N-(4-(4-methoxyphenyl)thiazol-2-yl)-N-(3-morpholinopropyl)acetamide] was “DYRK2”. For the compound `COc1ccc(-c2csc(N(CCCN3CCOCC3)C(=O)c3ccco3)n2)cc1` [N-(4-(4-methoxyphenyl)thiazol-2-yl)-N-(3-morpholinopropyl)furan-2-carboxamide], the Activity result on AKT1 is recorded as “AKT1”; at DYRK2, “DYRK2”.

On to `CCC(=O)N(CC1CCCO1)c1nc(-c2ccc(OC)cc2)cs1` (centres unmarked) [N-(4-(4-methoxyphenyl)thiazol-2-yl)-N-((tetrahydrofuran-2-yl)methyl)propionamide], for which the Activity result on DYRK2 was “DYRK2”. Same read-out and setting: the same measure for `COc1ccc(-c2csc(N(C)C(C)=O)n2)cc1` [N-(4-(4-methoxyphenyl)thiazol-2-yl)-N-methylacetamide]: “DYRK2”. Still for that read-out and setting: the value for `CCC(=O)N(CC)c1nc(-c2ccc(OC)cc2)cs1` [N-ethyl-N-(4-(4-methoxyphenyl)thiazol-2-yl)propionamide] was “DYRK2”.
